According to article PMC8550792, “Evolution of kinase polypharmacology across HSP90 drug discovery” (Cell Chemical Biology, 2021):

Experiments:
Assay in all cases: biochemical
Format in all cases: biochemical
382 unique human kinases [1] = target: T1, 382 unique human kinases (Homo sapiens, UniProt Q96RR4); settings: kinase CAMKK2, compound 10 uM; for remaining activity at 10 µM: read-out: % Enzyme Activity (relative to DMSO controls)
T1 construct: purchased Reaction Biology (HotSpot contract assay)
T1 sequence (Q96RR4 whole entry): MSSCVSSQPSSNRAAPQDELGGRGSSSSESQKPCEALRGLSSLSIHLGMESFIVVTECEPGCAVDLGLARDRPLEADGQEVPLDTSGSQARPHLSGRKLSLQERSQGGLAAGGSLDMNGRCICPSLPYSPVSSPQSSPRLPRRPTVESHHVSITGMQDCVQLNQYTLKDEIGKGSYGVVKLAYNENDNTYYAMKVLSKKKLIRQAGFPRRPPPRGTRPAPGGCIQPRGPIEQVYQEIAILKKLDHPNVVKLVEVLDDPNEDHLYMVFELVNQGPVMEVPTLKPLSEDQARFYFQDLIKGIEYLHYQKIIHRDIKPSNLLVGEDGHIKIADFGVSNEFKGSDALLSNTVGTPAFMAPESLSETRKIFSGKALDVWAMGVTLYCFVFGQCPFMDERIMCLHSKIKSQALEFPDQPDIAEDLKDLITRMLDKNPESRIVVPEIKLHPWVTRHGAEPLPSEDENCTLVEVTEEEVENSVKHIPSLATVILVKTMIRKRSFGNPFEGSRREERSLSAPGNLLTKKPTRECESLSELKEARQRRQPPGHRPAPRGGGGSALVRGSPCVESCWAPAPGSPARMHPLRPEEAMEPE

382 unique human kinases [2] = target: T2, 382 unique human kinases (Homo sapiens, UniProt P22607, K650M); settings: FGFR3 (K650M), 10 uM; for remaining activity at 10 µM: read-out: % Enzyme Activity (relative to DMSO controls)
T2 construct: purchased Reaction Biology (HotSpot contract assay)
T2 sequence (P22607 23-806 K650M): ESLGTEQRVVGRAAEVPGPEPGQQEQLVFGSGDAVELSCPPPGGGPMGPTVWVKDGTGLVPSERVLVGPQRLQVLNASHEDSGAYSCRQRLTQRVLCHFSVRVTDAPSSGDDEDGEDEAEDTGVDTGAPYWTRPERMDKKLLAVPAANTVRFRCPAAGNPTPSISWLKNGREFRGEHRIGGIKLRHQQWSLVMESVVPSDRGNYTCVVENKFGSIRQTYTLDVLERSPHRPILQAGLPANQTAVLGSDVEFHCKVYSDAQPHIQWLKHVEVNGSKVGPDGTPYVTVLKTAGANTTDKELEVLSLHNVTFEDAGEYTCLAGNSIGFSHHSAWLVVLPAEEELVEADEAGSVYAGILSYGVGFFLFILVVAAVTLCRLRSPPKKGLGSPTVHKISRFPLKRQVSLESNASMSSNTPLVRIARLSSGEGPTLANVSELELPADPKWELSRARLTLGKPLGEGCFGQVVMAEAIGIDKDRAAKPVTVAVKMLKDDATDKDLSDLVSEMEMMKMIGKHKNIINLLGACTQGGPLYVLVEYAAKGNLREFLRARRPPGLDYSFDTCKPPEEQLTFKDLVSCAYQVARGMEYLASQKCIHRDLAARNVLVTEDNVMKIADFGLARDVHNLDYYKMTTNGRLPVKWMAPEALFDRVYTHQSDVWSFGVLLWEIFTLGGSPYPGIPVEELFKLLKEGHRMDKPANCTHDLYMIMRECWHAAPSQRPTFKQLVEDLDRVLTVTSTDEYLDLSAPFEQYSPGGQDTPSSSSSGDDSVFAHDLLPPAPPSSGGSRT

382 unique human kinases [3] = target: T3, 382 unique human kinases (Homo sapiens, UniProt Q9Y2K2); settings: SIK3, 10 uM; for remaining activity at 10 µM: read-out: % Enzyme Activity (relative to DMSO controls)
T3 construct: purchased Reaction Biology (HotSpot contract assay)
T3 sequence (Q9Y2K2 whole entry): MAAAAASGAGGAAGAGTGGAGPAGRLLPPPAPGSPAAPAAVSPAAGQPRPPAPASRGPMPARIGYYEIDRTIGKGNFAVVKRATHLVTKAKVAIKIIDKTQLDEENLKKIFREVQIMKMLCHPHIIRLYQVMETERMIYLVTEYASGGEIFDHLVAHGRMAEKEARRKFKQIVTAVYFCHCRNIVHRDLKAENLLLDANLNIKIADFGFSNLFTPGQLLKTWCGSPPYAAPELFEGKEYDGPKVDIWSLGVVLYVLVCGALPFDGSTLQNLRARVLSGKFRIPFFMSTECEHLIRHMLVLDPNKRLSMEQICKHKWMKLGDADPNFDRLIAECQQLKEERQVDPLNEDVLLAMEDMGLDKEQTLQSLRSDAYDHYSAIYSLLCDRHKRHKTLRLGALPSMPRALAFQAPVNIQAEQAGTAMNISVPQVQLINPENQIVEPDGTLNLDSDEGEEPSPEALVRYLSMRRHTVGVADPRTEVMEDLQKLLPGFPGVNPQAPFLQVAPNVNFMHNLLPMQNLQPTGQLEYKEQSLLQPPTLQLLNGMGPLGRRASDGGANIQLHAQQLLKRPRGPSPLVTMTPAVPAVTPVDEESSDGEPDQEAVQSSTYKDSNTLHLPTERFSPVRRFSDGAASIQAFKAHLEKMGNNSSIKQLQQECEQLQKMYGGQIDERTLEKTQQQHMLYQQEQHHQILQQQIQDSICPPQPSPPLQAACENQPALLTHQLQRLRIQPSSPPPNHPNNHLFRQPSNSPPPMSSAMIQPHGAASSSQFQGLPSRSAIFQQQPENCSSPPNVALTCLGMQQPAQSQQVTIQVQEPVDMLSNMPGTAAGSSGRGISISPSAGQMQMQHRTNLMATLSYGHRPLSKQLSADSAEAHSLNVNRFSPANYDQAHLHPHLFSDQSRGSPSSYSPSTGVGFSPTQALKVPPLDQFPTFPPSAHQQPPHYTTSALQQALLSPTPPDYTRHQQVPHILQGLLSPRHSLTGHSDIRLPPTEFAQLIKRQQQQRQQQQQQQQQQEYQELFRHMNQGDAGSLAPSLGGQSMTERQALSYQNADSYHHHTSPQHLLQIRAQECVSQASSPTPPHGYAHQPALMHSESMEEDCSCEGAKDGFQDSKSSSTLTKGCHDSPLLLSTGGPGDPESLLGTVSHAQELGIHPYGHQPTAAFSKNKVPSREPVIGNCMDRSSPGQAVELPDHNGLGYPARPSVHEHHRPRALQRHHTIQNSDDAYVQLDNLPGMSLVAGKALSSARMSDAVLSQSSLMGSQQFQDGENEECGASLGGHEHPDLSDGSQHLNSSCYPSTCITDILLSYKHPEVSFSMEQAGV

382 unique human kinases [4] = target: T4, 382 unique human kinases (Homo sapiens, UniProt Q9BXA7); settings: STK22D/TSSK1, 10 uM; for remaining activity at 10 µM: read-out: % Enzyme Activity (relative to DMSO controls)
T4 construct: purchased Reaction Biology (HotSpot contract assay)
T4 sequence (Q9BXA7 1-367): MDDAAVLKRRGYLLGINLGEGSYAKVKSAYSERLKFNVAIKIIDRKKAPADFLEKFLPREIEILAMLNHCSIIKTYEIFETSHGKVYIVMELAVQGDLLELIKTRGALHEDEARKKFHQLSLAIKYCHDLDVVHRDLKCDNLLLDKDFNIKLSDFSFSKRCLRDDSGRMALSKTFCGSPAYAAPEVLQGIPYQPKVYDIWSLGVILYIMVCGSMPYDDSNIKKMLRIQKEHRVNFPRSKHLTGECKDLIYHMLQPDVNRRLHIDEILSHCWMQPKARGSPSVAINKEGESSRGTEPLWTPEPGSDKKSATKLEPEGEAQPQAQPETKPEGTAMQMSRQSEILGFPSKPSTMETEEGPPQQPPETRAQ

382 unique human kinases [5] = target: T5, 382 unique human kinases (Homo sapiens, UniProt Q8IVH8); settings: kinase GLK/MAP4K3, compound 10 uM; for remaining activity at 10 µM: read-out: % Enzyme Activity (relative to DMSO controls)
T5 construct: purchased Reaction Biology (HotSpot contract assay)
T5 sequence (Q8IVH8 1-894): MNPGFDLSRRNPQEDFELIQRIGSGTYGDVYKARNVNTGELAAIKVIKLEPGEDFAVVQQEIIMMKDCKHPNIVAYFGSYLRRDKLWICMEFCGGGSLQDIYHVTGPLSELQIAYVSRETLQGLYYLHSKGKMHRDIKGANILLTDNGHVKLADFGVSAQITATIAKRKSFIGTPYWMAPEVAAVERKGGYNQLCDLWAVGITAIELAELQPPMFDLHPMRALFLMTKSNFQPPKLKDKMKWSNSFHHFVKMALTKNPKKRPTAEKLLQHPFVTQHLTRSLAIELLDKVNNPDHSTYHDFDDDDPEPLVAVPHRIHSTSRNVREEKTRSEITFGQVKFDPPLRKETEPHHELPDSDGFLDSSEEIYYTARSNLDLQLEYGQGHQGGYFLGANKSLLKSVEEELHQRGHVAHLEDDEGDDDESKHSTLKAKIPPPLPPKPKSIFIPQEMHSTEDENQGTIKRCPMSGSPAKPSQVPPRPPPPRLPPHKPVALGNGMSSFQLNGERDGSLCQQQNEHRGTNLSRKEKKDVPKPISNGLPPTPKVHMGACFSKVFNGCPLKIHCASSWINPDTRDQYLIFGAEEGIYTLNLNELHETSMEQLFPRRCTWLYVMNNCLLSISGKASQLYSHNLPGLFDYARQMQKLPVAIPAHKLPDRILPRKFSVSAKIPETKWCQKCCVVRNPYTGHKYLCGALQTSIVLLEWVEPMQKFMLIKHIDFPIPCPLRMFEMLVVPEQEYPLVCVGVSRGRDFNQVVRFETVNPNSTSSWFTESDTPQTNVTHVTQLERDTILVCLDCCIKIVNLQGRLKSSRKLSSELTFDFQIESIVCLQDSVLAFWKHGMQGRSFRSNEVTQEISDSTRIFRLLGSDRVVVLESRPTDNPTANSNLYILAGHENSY

382 unique human kinases [6] = target: T6, 382 unique human kinases (Homo sapiens, UniProt P29320); settings: EPHA3, 10 uM; for remaining activity at 10 µM: read-out: % Enzyme Activity (relative to DMSO controls)
T6 construct: purchased Reaction Biology (HotSpot contract assay)
T6 sequence (P29320 21-983): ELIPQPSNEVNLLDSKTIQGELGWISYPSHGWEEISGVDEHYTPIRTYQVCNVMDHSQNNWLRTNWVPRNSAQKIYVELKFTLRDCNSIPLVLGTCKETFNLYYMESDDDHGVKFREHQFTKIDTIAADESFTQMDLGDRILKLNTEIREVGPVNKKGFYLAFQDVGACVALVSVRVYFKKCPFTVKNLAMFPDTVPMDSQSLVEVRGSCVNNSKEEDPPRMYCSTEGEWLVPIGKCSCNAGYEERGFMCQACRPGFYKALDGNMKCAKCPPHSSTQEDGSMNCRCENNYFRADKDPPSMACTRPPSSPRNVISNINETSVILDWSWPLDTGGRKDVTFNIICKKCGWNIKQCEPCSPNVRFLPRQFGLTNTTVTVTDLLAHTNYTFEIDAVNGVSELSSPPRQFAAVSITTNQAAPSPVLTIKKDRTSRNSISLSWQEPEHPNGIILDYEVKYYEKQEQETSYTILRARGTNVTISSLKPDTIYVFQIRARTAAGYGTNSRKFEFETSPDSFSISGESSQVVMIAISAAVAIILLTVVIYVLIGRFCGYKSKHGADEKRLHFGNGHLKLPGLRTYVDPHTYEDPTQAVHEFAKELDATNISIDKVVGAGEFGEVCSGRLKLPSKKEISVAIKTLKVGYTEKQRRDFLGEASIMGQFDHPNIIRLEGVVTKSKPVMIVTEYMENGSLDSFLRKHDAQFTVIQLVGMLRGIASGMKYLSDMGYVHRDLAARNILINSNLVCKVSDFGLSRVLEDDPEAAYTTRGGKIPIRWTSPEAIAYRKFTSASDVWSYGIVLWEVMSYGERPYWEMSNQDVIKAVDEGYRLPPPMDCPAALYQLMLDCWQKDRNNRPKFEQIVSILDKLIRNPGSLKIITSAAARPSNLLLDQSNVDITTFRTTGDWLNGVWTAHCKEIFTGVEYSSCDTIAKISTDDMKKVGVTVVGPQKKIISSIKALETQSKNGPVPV

382 unique human kinases [7] = target: T7, 382 unique human kinases (Homo sapiens, UniProt P22607, V555M); settings: FGFR3 (V555M), 10 uM; for remaining activity at 10 µM: read-out: % Enzyme Activity (relative to DMSO controls)
T7 construct: purchased Reaction Biology (HotSpot contract assay)
T7 sequence (P22607 23-806 V555M): as the sequence (P22607 23-806 K650M) above, with V533M, M628K counted along it

382 unique human kinases [8] = target: T8, 382 unique human kinases (Homo sapiens, UniProt Q5S007, R1441C); settings: LRRK2 (R1441C), [ATP] 50 µM, compound 10 uM; for remaining activity at 10 µM: read-out: % Enzyme Activity (relative to DMSO controls)
T8 construct: purchased Reaction Biology (HotSpot contract assay)

382 unique human kinases [9] = target: T9, 382 unique human kinases (Homo sapiens, UniProt Q9UM73, S1206R); settings: ALK (S1206R), [ATP] 20 µM, compound 10 uM; for remaining activity at 10 µM: read-out: % Enzyme Activity (relative to DMSO controls)
T9 construct: purchased Reaction Biology (HotSpot contract assay)
T9 sequence (Q9UM73 19-1620 S1206R): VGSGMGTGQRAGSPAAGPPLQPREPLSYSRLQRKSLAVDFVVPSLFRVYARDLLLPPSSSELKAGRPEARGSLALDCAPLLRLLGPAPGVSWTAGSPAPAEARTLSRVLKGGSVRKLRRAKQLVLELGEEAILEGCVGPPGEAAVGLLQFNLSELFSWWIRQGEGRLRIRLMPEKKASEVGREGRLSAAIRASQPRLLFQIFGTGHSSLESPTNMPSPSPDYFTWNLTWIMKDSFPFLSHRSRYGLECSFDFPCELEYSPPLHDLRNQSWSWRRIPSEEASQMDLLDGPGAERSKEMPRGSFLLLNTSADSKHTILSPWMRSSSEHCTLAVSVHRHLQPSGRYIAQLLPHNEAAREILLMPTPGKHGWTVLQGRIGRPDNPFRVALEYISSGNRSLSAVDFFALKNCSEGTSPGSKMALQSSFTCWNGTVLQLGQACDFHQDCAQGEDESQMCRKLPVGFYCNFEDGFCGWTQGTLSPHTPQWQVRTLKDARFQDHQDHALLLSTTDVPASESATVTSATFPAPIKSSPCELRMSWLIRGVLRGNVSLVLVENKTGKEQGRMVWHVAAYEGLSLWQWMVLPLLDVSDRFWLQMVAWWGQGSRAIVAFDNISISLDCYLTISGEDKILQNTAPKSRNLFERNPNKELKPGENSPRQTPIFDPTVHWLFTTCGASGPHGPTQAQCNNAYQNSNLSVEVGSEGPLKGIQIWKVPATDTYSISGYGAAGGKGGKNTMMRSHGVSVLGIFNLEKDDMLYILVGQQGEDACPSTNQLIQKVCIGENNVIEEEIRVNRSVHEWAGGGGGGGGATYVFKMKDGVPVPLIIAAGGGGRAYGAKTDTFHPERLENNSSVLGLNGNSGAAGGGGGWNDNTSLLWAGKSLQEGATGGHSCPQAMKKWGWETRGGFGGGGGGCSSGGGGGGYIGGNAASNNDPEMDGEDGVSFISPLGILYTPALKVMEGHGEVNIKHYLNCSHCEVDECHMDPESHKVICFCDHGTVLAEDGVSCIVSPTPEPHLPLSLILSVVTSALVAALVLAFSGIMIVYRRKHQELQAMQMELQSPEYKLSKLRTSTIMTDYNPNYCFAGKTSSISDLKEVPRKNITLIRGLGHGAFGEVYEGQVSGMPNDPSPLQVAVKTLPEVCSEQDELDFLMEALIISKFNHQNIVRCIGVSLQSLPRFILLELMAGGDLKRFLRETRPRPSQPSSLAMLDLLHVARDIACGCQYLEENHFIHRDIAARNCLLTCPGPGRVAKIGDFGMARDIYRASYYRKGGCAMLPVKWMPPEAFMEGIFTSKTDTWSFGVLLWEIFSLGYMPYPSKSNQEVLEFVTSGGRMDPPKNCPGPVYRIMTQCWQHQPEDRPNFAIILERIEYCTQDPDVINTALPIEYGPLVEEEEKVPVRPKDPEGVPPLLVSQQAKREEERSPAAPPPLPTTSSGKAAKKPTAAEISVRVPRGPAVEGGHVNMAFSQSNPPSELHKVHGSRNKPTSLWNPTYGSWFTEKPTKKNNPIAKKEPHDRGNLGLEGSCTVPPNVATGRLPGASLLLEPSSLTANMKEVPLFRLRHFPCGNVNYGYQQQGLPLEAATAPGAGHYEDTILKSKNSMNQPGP

For `CC(C)c1cc(-c2n[nH]c(=O)n2-c2ccc3c(ccn3C)c2)c(O)cc1O` [Ganetespib (STA9090)], the remaining activity at 10 µM (382 unique human kinases [1]) was 89.7%, the remaining activity at 10 µM (382 unique human kinases [2]) was 86.5% and the remaining activity at 10 µM (382 unique human kinases [3]) was 78.3%. It also gave a remaining activity at 10 µM (382 unique human kinases [4]) of 75.4%, a remaining activity at 10 µM (382 unique human kinases [5]) of 89.8% and a remaining activity at 10 µM (382 unique human kinases [6]) of 73.7%. For the same compound, the remaining activity at 10 µM (382 unique human kinases [7]) was 65.2%.
Work on `CC(C)c1cc(-c2n[nH]c(=O)n2-c2ccc3c(ccn3C)c2)c(O)cc1O` [Ganetespib] yielded a remaining activity at 10 µM (382 unique human kinases [8]) of 50.7% and a remaining activity at 10 µM (382 unique human kinases [9]) of 42%.
For `CCNC(=O)c1noc(-c2cc(C(C)C)c(O)cc2O)c1-c1ccc(CN2CCOCC2)cc1` [Luminespib], the “% Enzyme Activity (relative to DMSO controls)” value (382 unique human kinases [8]) was 88.51%, the remaining activity at 10 µM (382 unique human kinases [8]) was 88.8% and the “% Enzyme Activity (relative to DMSO controls)” value (382 unique human kinases [9]) was 100.88%. It also gave a remaining activity at 10 µM (382 unique human kinases [9]) of 104%.
In the case of `CCNC(=O)c1noc(-c2cc(C(C)C)c(O)cc2O)c1-c1ccc(CN2CCOCC2)cc1` [Luminespib (AUY-922)], the “% Enzyme Activity (relative to DMSO controls)” value (382 unique human kinases [1]) is reported as 109.01%, the remaining activity at 10 µM (382 unique human kinases [1]) is reported as 110% and the “% Enzyme Activity (relative to DMSO controls)” value (382 unique human kinases [2]) is reported as 70.76%. The remaining activity at 10 µM (382 unique human kinases [2]) was 78.7%, the “% Enzyme Activity (relative to DMSO controls)” value (382 unique human kinases [3]) was 99.21% and the remaining activity at 10 µM (382 unique human kinases [3]) was 99.6%. For the same compound, the “% Enzyme Activity (relative to DMSO controls)” value (382 unique human kinases [4]) was 98.29%, the remaining activity at 10 µM (382 unique human kinases [4]) was 99.3% and the “% Enzyme Activity (relative to DMSO controls)” value (382 unique human kinases [5]) was 86.46%. The remaining activity at 10 µM (382 unique human kinases [5]) was 87.1%, the “% Enzyme Activity (relative to DMSO controls)” value (382 unique human kinases [6]) was 100.00% and the remaining activity at 10 µM (382 unique human kinases [6]) was 104%. For the same compound, the “% Enzyme Activity (relative to DMSO controls)” value (382 unique human kinases [7]) was 124.56% and the remaining activity at 10 µM (382 unique human kinases [7]) was 125%.
